# Data from US8088806B2 (Achillion Pharmaceuticals, Inc., priority 2005, dated 2012).
# System: HCV replicon
# Experiment: Replicon based assay of HCV replication inhibition (NPT ELISA)
# Assay type: cell-based, Hepatitis C virus
# Details: Hepatitis C virus, replicon based assay of HCV replication inhibition; Table IV; read-out: Activity
# In short: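 NPT (neomycin phosphotransferase) content, proportional to replicon replication, quantified by capture ELISA on day four. Before that, replicon-bearing Huh-7 cells in G418-free screening medium were exposed three days at 37° C to compound, typically six doses from 10 to 0.03 micromolar, with equal DMSO across wells.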
row,Compound,EC50 [µM]
1,"CCCCCCC#Cc1ccc(Nc2nc(-c3cccnc3)cs2)cc1C(F)(F)F [compound 789, N-(3-(trifluoromethyl)-4-(oct-1-ynyl)phenyl)-4-(pyridin-3-yl)thiazol-2-amine]",< 1
2,"CCOC(=O)Cc1csc(Nc2nc(-c3cccnc3)cs2)n1 [compound 790, ethyl 2-(2-(4-(pyridin-3-yl)thiazol-2-ylamino)thiazol-4-yl)acetate]",> 10
3,"c1cncc(-c2csc(Nc3nc4ccccc4[nH]3)n2)c1 [compound 791, N-(4-(pyridin-3-yl)thiazol-2-yl)-1H-benzo[d]imidazol-2-amine]",> 10
4,O=S1(=O)CCN(Cc2ccc(Nc3nc(-c4cccnc4)cs3)cc2)CC1 [compound 792],> 10
5,"FC(F)(F)c1ccc(-c2cc(Nc3nc(-c4cccnc4)cs3)on2)cc1 [compound 793, 3-(4-(trifluoromethyl)phenyl)-N-(4-(pyridin-3-yl)thiazol-2-yl)isoxazol-5-amine]",> 10
6,"Cc1ccc2nc(Nc3nc(-c4cccnc4)cs3)sc2c1 [compound 794, 6-methyl-N-(4-(pyridin-3-yl)thiazol-2-yl)benzo[d]thiazol-2-amine]",> 10
7,"CCCCOC(=O)c1n[nH]c(Nc2nc(-c3cccnc3)cs2)n1 [compound 795, butyl 5-(4-(pyridin-3-yl)thiazol-2-ylamino)-1H-1,2,4-triazole-3-carboxylate]",> 10
8,"c1ccc(-c2nsc(Nc3nc(-c4cccnc4)cs3)n2)cc1 [compound 796, 3-phenyl-N-(4-(pyridin-3-yl)thiazol-2-yl)-1,2,4-thiadiazol-5-amine]",> 10
9,"CC(C)(C)c1csc(Nc2nc(-c3cccnc3)cs2)n1 [compound 797, 4-tert-butyl-N-(4-(pyridin-3-yl)thiazol-2-yl)thiazol-2-amine]",> 10
10,"FC(F)(F)c1cc(Nc2nc(-c3cccnc3)cs2)ccc1OCCCCc1cccs1 [compound 799, N-(4-(4-(thiophen-2-yl)butoxy)-3-(trifluoromethyl)phenyl)-4-(pyridin-3-yl)thiazol-2-amine]",< 1
11,"FC(F)(F)c1cc(Nc2nc(-c3cccnc3)cs2)ccc1OCCCc1cccnc1 [compound 800, N-(4-(3-(pyridin-3-yl)propoxy)-3-(trifluoromethyl)phenyl)-4-(pyridin-3-yl)thiazol-2-amine]",< 1
12,"CCCCCCCCOc1ccc(Nc2nc(C3=CSC4=NC(=O)CN34)cs2)cc1C(F)(F)F [compound 801, 3-(2-(3-(trifluoromethyl)-4-(octyloxy)phenylamino)thiazol-4-yl)imidazo[2,1-b]thiazol-6(SH)-one]",< 1
13,CN(CCOc1ccc(Nc2nc(-c3cccnc3)cs2)cc1C(F)(F)F)c1ccccc1 [compound 802],< 1
14,"COc1ncc(-c2csc(Nc3ccc(OCCCC4CCCC4)c(C(F)(F)F)c3)n2)cn1 [compound 803, N-(4-(3-cyclopentylpropoxy)-3-(trifluoromethyl)phenyl)-4-(2-methoxypyrimidin-5-yl)thiazol-2-amine]",< 1
15,"FC(F)(F)c1cc(Nc2nc(-c3cccnc3)cs2)ccc1OCCCCc1ccccc1 [compound 804, N-(4-(4-phenylbutoxy)-3-(trifluoromethyl)phenyl)-4-(pyridin-3-yl)thiazol-2-amine]",< 1
16,"Cc1ccc(CCCCOc2ccc(Nc3nc(-c4cccnc4)cs3)cc2C(F)(F)F)cc1 [compound 805, N-(4-(4-p-tolylbutoxy)-3-(trifluoromethyl)phenyl)-4-(pyridin-3-yl)thiazol-2-amine]",1 to 10
17,"Fc1ccc(-c2csc(Nc3ccc(OCCCc4cccnc4)c(C(F)(F)F)c3)n2)cc1 [compound 806, N-(4-(3-(pyridin-3-yl)propoxy)-3-(trifluoromethyl)phenyl)-4-(4-fluorophenyl)thiazol-2-amine]",1 to 10
18,"CCCCCCCCOc1ccc(Nc2nc(-c3csc4nccn34)cs2)cc1C(F)(F)F [compound 807, N-(3-(trifluoromethyl)-4-(octyloxy)phenyl)-4-(imidazo[2,1-b]thiazol-3-yl)thiazol-2-amine]",< 1
19,"CCCCCCCCOc1ccc(Nc2nc(C(=O)CSC3=NC(=O)CC(=O)N3)cs2)cc1C(F)(F)F [compound 808, 2-(2-(2-(3-(trifluoromethyl)-4-(octyloxy)phenylamino)thiazol-4-yl)-2-oxoethylthio)pyrimidine-4,6(1H,5H)-dione]",< 1
20,"CCCCCCCCOc1ccc(Nc2nc(-c3c[nH]nc3C#N)cs2)cc1C(F)(F)F [compound 809, 4-(2-(3-(trifluoromethyl)-4-(octyloxy)phenylamino)thiazol-4-yl)-1H-pyrazole-3-carbonitrile]",< 1
21,"CCCCCCCCOc1ccc(Nc2nc(-c3cnc(N)nc3)cs2)cc1C(F)(F)F [compound 810, 5-(2-(3-(trifluoromethyl)-4-(octyloxy)phenylamino)thiazol-4-yl)pyrimidin-2-amine]",< 1
22,"CCCCCCCCOc1ccc(Nc2nc(-c3cnc[nH]3)cs2)cc1C(F)(F)F [compound 811, N-(3-(trifluoromethyl)-4-(octyloxy)phenyl)-4-(1H-imidazol-5-yl)thiazol-2-amine]",< 1

row,Compound,EC50 [µM]
1,"CCCCCCCCOc1ccc(Nc2nc(-c3ccsc3Cl)cs2)cc1C(F)(F)F [compound 812, 4-(2-chlorothiophen-3-yl)-N-(3-(trifluoromethyl)-4-(octyloxy)phenyl)thiazol-2-amine]",< 1
2,"CCCCCCCCOc1ccc(Nc2nc(-c3cccnc3C#N)cs2)cc1C(F)(F)F [compound 813, 3-(2-(3-(trifluoromethyl)-4-(octyloxy)phenylamino)thiazol-4-yl)pyridine-2-carbonitrile]",< 1
3,"CCCCCCCCOc1ccc(Nc2nc(-c3cccnc3C(N)=O)cs2)cc1C(F)(F)F [compound 814, 3-(2-(3-(trifluoromethyl)-4-(octyloxy)phenylamino)thiazol-4-yl)pyridine-2-carboxamide]",1 to 10
4,"c1cncc(-c2csc(Nc3nc(-c4ccc5ccccc5c4)cs3)n2)c1 [compound 815, 4-(naphthalen-2-yl)-N-(4-(pyridin-3-yl)thiazol-2-yl)thiazol-2-amine]",1 to 10
5,COc1ccc(Nc2nc(-c3cccnc3)cs2)cc1S(=O)(=O)Nc1ccc(Cl)cc1 [compound 818],> 10
6,CCN(CC)S(=O)(=O)c1cc(Nc2nc(-c3cccnc3)cs2)ccc1Cl [compound 819],> 10
7,"CCN(CC)C(=O)c1ccc(Nc2nc(-c3cccnc3)cs2)cc1 [compound 820, 4-(4-(pyridin-3-yl)thiazol-2-ylamino)-N,N-diethylbenzamide]",> 10
8,"CN(C)C(=O)c1ccc(Nc2nc(-c3cccnc3)cs2)cc1 [compound 821, 4-(4-(pyridin-3-yl)thiazol-2-ylamino)-N,N-dimethylbenzamide]",> 10
9,"CCCCCCC=Cc1ccc(Nc2nc(-c3cccnc3)cs2)cc1C(F)(F)F [compound 822, N-(3-(trifluoromethyl)-4-(oct-1-enyl)phenyl)-4-(pyridin-3-yl)thiazol-2-amine]",< 1
10,"CCCCCCCOc1ccc(Nc2nc(-c3cccnc3)cs2)cc1C(F)(F)F [compound 823, N-(3-(trifluoromethyl)-4-(heptyloxy)phenyl)-4-(pyridin-3-yl)thiazol-2-amine]",< 1
11,"CC(C)CCCOc1ccc(Nc2nc(-c3cccnc3)cs2)cc1C(F)(F)F [compound 824, N-(4-(4-methylpentyloxy)-3-(trifluoromethyl)phenyl)-4-(pyridin-3-yl)thiazol-2-amine]",< 1
12,"CCCCCCCCc1ccc(Nc2nc(-c3cccnc3)cs2)cc1C(F)(F)F [compound 825, N-(3-(trifluoromethyl)-4-octylphenyl)-4-(pyridin-3-yl)thiazol-2-amine]",< 1
13,"CCCCCCCCc1ccc(Nc2nc(-c3cnc(OC)nc3)cs2)cc1C(F)(F)F [compound 826, N-(3-(trifluoromethyl)-4-octylphenyl)-4-(2-methoxypyrimidin-5-yl)thiazol-2-amine]",< 1
14,"CC(C)=CCC/C(C)=C/COc1ccc(Nc2nc(-c3ccc(F)cc3)cs2)cc1C(F)(F)F [compound 827, N-(4-((E)-3,7-dimethylocta-2,6-dienyloxy)-3-(trifluoromethyl)phenyl)-4-(4-fluorophenyl)thiazol-2-amine]",> 10
15,"COc1ncc(-c2csc(Nc3ccc(OCCCCc4ccccc4)c(C(F)(F)F)c3)n2)cn1 [compound 828, N-(4-(4-phenylbutoxy)-3-(trifluoromethyl)phenyl)-4-(2-methoxypyrimidin-5-yl)thiazol-2-amine]",< 1
16,"COc1ncc(-c2csc(Nc3ccc(OCCCCc4ccc(C)cc4)c(C(F)(F)F)c3)n2)cn1 [compound 829, N-(4-(4-p-tolylbutoxy)-3-(trifluoromethyl)phenyl)-4-(2-methoxypyrimidin-5-yl)thiazol-2-amine]",< 1
17,"COc1ncc(-c2csc(Nc3ccc(OCCCc4cccnc4)c(C(F)(F)F)c3)n2)cn1 [compound 830, N-(4-(3-(pyridin-3-yl)propoxy)-3-(trifluoromethyl)phenyl)-4-(2-methoxypyrimidin-5-yl)thiazol-2-amine]",1 to 10
18,"COc1ncc(-c2csc(Nc3ccc(OCCCc4ccccc4)c(C(F)(F)F)c3)n2)cn1 [compound 831, N-(4-(3-phenylpropoxy)-3-(trifluoromethyl)phenyl)-4-(2-methoxypyrimidin-5-yl)thiazol-2-amine]",< 1
19,"CCCCCOc1ccc2nc(NC(=O)c3cccnc3)sc2c1 [compound 832, N-(6-(pentyloxy)benzo[d]thiazol-2-yl)nicotinamide]",> 10
20,"CCCCCCCN(C)Cc1ccc(Nc2nc(-c3cccnc3)cs2)cc1C(F)(F)F [compound 833, N-(4-((heptyl(methyl)amino)methyl)-3-(trifluoromethyl)phenyl)-4-(pyridin-3-yl)thiazol-2-amine]",< 1
21,"c1cncc(-c2csc(Nc3nc(CN4CCCCC4)cs3)n2)c1 [compound 834, 4-((piperidin-1-yl)methyl)-N-(4-(pyridin-3-yl)thiazol-2-yl)thiazol-2-amine]",> 10
